≈ marks a conversion by molar mass, not a printed value. Where two headings read alike, the source gives them in different places.
Tests used:
Assay in all cases: Antibacterial effectiveness in a standard microtitre test (MIC)
Type in all cases: cell-based
[1] = system: Bacillus subtilis A
Text: (§1) Antibacterial effectiveness of the compounds of the Examples in a standard microtitre test.

[2] = system: Citrobacter freundii E8
Text: as §1

[3] = system: Enterobacter cloacae N1
Text: as §1

[4] = system: Escherichia coli 0111
Text: as §1

[5] = system: Escherichia coli ESS
Text: as §1

[6] = system: Escherichia coli JT 39; conditions: JT39
Text: as §1

[7] = system: Escherichia coli JT 4 R+
Text: as §1

[8] = system: Klebsiella aerogenes A
Text: as §1

[9] = system: Klebsiella aerogenes Ba 95 R+
Text: as §1

[10] = system: Proteus mirabilis C977
Text: as §1

[11] = system: Proteus morganii I580; conditions: Morganella morganii
Text: as §1

[12] = system: Proteus rettgeri WM16; conditions: Providencia rettgeri
Text: as §1

[13] = system: Proteus vulgaris W091
Text: as §1

[14] = system: Pseudomonas aeruginosa A
Text: as §1

[15] = system: Salmonella typhimurium CR10; conditions: Salmonella enterica
Text: as §1

[16] = system: Serratia marcescens US20
Text: as §1

[17] = system: Shigella sonnei MB 11967; conditions: MB11967
Text: as §1

[18] = system: Staphylococcus aureus 1517
Text: as §1

[19] = system: Staphylococcus aureus Oxford
Text: as §1

[20] = system: Streptococcus faecalis I; conditions: Enterococcus faecalis
Text: as §1

[21] = system: Staphylococcus aureus Russell
Text: as §1

[22] = system: Streptococcus pneumoniae CN33
Text: as §1

[23] = system: Streptococcus pyogenes CN10
Text: as §1

[24] = Bacillus subtilis A, read-out: MIC
[25] = Proteus morganii I580, read-out: MIC
[26] = Proteus rettgeri WM16, read-out: MIC
[27] = Pseudomonas aeruginosa A, read-out: MIC
[28] = Salmonella typhimurium CR10, read-out: MIC
[29] = Staphylococcus aureus Oxford, read-out: MIC
[30] = Streptococcus faecalis I, read-out: MIC

Work on CC(=O)N/C=C/SC1=C(C(=O)O)N2C(=O)[C@H]([C@@H](C)N)[C@H]2C1 [Example 2, (5R,6R)-3-[E-2-acetamidoethenylthio]-6-[(R)-1-aminoethyl]-7-oxo-1-azabicyclo[3.2.0]hept-2-ene-2-carboxylic acid] yielded an MIC [1, 24] of 0.2 µg/mL (≈ 0.642 µM), an MIC ([2]; read-out: MIC) of 2 µg/mL (≈ 6.42 µM) and an MIC ([3]; read-out: MIC) of 2 µg/mL (≈ 6.42 µM). For the same molecule, the MIC [4] was 0.5 µg/mL (≈ 1.61 µM), the MIC ([5]; Escherichia coli) was 0.2 µg/mL (≈ 0.642 µM) and the MIC ([6]; Escherichia coli) was 0.5 µg/mL (≈ 1.61 µM). The MIC [7] was 2 µg/mL (≈ 6.42 µM), the MIC ([8]; Klebsiella aerogenes) was 0.5 µg/mL (≈ 1.61 µM) and the MIC [9] was 2 µg/mL (≈ 6.42 µM). The MIC ([10]; read-out: MIC) was 4 µg/mL (≈ 12.8 µM), the MIC [11, 25] was 8 µg/mL (≈ 25.7 µM) and the MIC [12, 26] was 4 µg/mL (≈ 12.8 µM). For the same molecule, the MIC ([13]; read-out: MIC) was 4 µg/mL (≈ 12.8 µM), the MIC [14, 27] was 62 µg/mL (≈ 199 µM) and the MIC [15, 28] was 1 µg/mL (≈ 3.21 µM). It also gave an MIC ([16]; read-out: MIC) of 2 µg/mL (≈ 6.42 µM), an MIC [17] of 1 µg/mL (≈ 3.21 µM) and an MIC ([18]; read-out: MIC) of 8 µg/mL (≈ 25.7 µM). It also gave an MIC [19, 29] of 0.5 µg/mL (≈ 1.61 µM) and an MIC [20, 30] of 4 µg/mL (≈ 12.8 µM).

In the case of CC(=O)N/C=C/SC1=C(C(=O)[O-])N2C(=O)[C@H]([C@@H](C)O)[C@H]2C1.[Na+] [Example 5, Sodium (5R,6S)-3-(E-2-acetamidoethenylthio)-6-[(R)-1-hydroxyethyl]-7-oxo-1-azabicyclo[3.2.0]hept-2-ene-2-carboxylate], the MIC ([1]; Bacillus subtilis) is reported as 0.2 µg/mL, the MIC [2] is reported as 0.5 µg/mL and the MIC [3] is reported as 1 µg/mL. It also gave an MIC [4] of no more than 0.5 µg/mL, an MIC ([5]; Escherichia coli) greater than 0.2 µg/mL and an MIC ([6]; Escherichia coli) of 0.2 µg/mL. It also gave an MIC ([8]; Klebsiella aerogenes) of 0.5 µg/mL, an MIC [10] of 2 µg/mL and an MIC ([11]; I580) of 2 µg/mL. For the same molecule, the MIC ([12]; WM16) was 2 µg/mL, the MIC [13] was 2 µg/mL and the MIC ([14]; Pseudomonas aeruginosa) was 125 µg/mL. It also gave an MIC ([15]; TYPHIMURIUM) of 0.5 µg/mL, an MIC [16] of 2 µg/mL and an MIC [17] of no more than 1 µg/mL. For the same molecule, the MIC ([19]; Staphylococcus aureus) was 0.2 µg/mL, the MIC ([21]; Staphylococcus aureus) was no more than 0.5 µg/mL and the MIC [20] was 8 µg/mL. It also gave an MIC [22] of 0.2 µg/mL and an MIC [23] of 0.5 µg/mL.

In the case of CC(=O)N/C=C/SC1=C(C(=O)[O-])N2C(=O)[C@H]([C@@H](C)OC=O)[C@H]2C1.[Na+] [Example 6, Sodium (5R,6S)-3-(E-2-acetamidoethenylthio)-6-[(R)-1-formyloxyethyl]-7-oxo-1-azabicyclo[3.2.0]hept-2-ene-2-carboxylate], the MIC ([1]; Bacillus subtilis) is reported as 0.8 µg/mL, the MIC [2] is reported as 1.6 µg/mL and the MIC [3] is reported as 6.2 µg/mL. The MIC [4] was 1.6 µg/mL, the MIC ([5]; Escherichia coli) was 0.4 µg/mL and the MIC ([6]; Escherichia coli) was 0.8 µg/mL. It also gave an MIC ([8]; Klebsiella aerogenes) of 1.6 µg/mL, an MIC [10] of 6.2 µg/mL and an MIC ([11]; I580) of 6.2 µg/mL. The MIC ([12]; WM16) was 3.1 µg/mL, the MIC [13] was 3.1 µg/mL and the MIC ([14]; Pseudomonas aeruginosa) was 100 µg/mL. The MIC ([15]; TYPHIMURIUM) was 3.1 µg/mL, the MIC [16] was 3.1 µg/mL and the MIC [17] was 1.6 µg/mL. For the same molecule, the MIC [18] was 12.5 µg/mL, the MIC ([19]; Staphylococcus aureus) was 0.8 µg/mL and the MIC ([21]; Staphylococcus aureus) was 0.4 µg/mL. For the same molecule, the MIC [20] was 12.5 µg/mL, the MIC [22] was 0.1 µg/mL and the MIC [23] was 0.2 µg/mL.

With CC(=O)NCCSC1=C(C(=O)O)N2C(=O)[C@H]([C@@H](C)N)[C@H]2C1 [Example 8, (5R,6R)-3-(2-Acetamidoethylthio)-6-[(R)-1-aminoethyl]-7-oxo-1-azabicyclo[3.2.0]hept-2-ene-2-carboxylic acid] the MIC [1, 24] was 4 µg/mL (≈ 12.8 µM), the MIC ([2]; read-out: MIC) was 16 µg/mL (≈ 51.1 µM) and the MIC ([3]; read-out: MIC) was 16 µg/mL (≈ 51.1 µM). For the same molecule, the MIC [4] was 16 µg/mL (≈ 51.1 µM), the MIC ([5]; Escherichia coli ESS, read-out: MIC) was 4 µg/mL (≈ 12.8 µM) and the MIC ([6]; Escherichia coli JT 39, read-out: MIC) was 8 µg/mL (≈ 25.5 µM). It also gave an MIC ([8]; Klebsiella aerogenes A, read-out: MIC) of 8 µg/mL (≈ 25.5 µM), an MIC ([10]; read-out: MIC) of 31 µg/mL (≈ 98.9 µM) and an MIC [11, 25] of 16 µg/mL (≈ 51.1 µM). For the same molecule, the MIC [12, 26] was 16 µg/mL (≈ 51.1 µM), the MIC ([13]; read-out: MIC) was 16 µg/mL (≈ 51.1 µM) and the MIC [14, 27] was 62 µg/mL (≈ 198 µM). It also gave an MIC [15, 28] of 8 µg/mL (≈ 25.5 µM), an MIC ([16]; read-out: MIC) of 16 µg/mL (≈ 51.1 µM) and an MIC [17] of 8 µg/mL (≈ 25.5 µM). For the same molecule, the MIC ([18]; read-out: MIC) was 31 µg/mL (≈ 98.9 µM), the MIC [19, 29] was 4 µg/mL (≈ 12.8 µM) and the MIC ([21]; Staphylococcus aureus Russell, read-out: MIC) was 2 µg/mL (≈ 6.38 µM). It also gave an MIC [20, 30] of 16 µg/mL (≈ 51.1 µM), an MIC ([22]; read-out: MIC) of 2 µg/mL (≈ 6.38 µM) and an MIC ([23]; read-out: MIC) of 2 µg/mL (≈ 6.38 µM).
